The text below walks through data of patent publication EP4722207A1, “OXOISOINDOLINYL-SUBSTITUTED TETRAHYDROPYRIMIDINEDIONE DERIVATIVE AND USE THEREOF” (Gluetacs Therapeutics (Shanghai) Co., Ltd., priority 2023, dated 2024).

Holding throughout (format): cell-based
One assay addresses T1, GSPT1 (Homo sapiens, UniProt P15170+Q96SW2).
T1 construct: effects of the compounds of the present disclosure on the expression of target proteins in cells; endogenous in cells; host or cells: human PBMCs (hPBMCs)
In words: Western-blot assay, substrate protein degradation in hPBMCs: GSPT1. The note with it: for GSPT1 substrate protein remaining %: compounds at 50 nM and 500 nM, 24 hours; for substrate protein remaining % GSPT1: 24 hours of compound treatment, 50 nM and 500 nM.

In another assay the target is T2, CK1α (Homo sapiens, UniProt P48729+Q96SW2).
T2 construct: effects of the compounds of the present disclosure on the expression of target proteins in cells; endogenous in cells; host or cells: human PBMCs (hPBMCs)
Nature of the assay: Western-blot assay, substrate protein degradation in hPBMCs: CK1α. The note with it: for CK1α substrate protein remaining %: compounds at 50 nM and 500 nM, 24 hours; for substrate protein remaining % CK1α: 24 hours of compound treatment, 50 nM and 500 nM.

The target in another assay is T3, IKZF2 (Homo sapiens, UniProt Q96SW2+Q9UKS7).
T3 construct: effects of the compounds of the present disclosure on the expression of target proteins in cells; endogenous in cells; host or cells: human PBMCs (hPBMCs)
In words: Western-blot assay, substrate protein degradation in hPBMCs: IKZF2. The conditions noted are these: for IKZF2 substrate protein remaining %: compounds at 50 nM and 500 nM, 24 hours; for substrate protein remaining % IKZF2: 24 hours of compound treatment, 50 nM and 500 nM.

The next assay concerns the target T4, IKZF1 (Homo sapiens, UniProt Q13422+Q96SW2).
T4 construct: effects of the compounds of the present disclosure on the expression of target proteins in cells; endogenous in cells; host or cells: human PBMCs (hPBMCs)
Nature of the assay: Western-blot assay, substrate protein degradation in hPBMCs: IKZF1. The note with it: for IKZF1 substrate protein remaining %: compounds at 50 nM and 500 nM, 24 hours; for substrate protein remaining % IKZF1: 24 hours of compound treatment, 50 nM and 500 nM.

The target of a further assay is T5, IKZF3 (Homo sapiens, UniProt Q96SW2+Q9UKT9).
T5 construct: effects of the compounds of the present disclosure on the expression of target proteins in cells; endogenous in cells; host or cells: human PBMCs (hPBMCs)
In words: Western-blot assay, substrate protein degradation in hPBMCs: IKZF3. The note with it: for IKZF3 substrate protein remaining %: compounds at 50 nM and 500 nM, 24 hours; for substrate protein remaining % IKZF3: 24 hours of compound treatment, 50 nM and 500 nM.

The next assay deals with T6, WEE1 (Homo sapiens, UniProt P30291+Q96SW2).
T6 construct: effects of the compounds of the present disclosure on the expression of target proteins in cells; endogenous in cells; host or cells: human PBMCs (hPBMCs)
In words: Western-blot assay, substrate protein degradation in hPBMCs: WEE1. The note with it: for WEE1 substrate protein remaining %: compounds at 50 nM and 500 nM, 24 hours; for substrate protein remaining % WEE1: 24 hours of compound treatment, 50 nM and 500 nM.

T3 sequence (Q9UKS7 whole entry): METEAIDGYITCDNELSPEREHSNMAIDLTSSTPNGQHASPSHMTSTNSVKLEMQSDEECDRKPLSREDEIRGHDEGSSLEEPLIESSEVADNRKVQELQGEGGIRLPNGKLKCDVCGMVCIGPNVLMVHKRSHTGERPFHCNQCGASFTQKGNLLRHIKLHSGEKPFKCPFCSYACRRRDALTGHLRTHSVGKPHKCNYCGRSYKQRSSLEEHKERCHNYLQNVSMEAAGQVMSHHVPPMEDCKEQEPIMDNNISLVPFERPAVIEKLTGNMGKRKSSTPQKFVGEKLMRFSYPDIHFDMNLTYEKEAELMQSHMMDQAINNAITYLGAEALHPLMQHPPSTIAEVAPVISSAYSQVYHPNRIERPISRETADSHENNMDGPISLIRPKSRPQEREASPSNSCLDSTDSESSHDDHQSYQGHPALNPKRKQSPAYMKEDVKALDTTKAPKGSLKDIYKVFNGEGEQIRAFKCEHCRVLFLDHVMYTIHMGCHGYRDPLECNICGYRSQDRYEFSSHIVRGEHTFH
T3 sequence (Q96SW2 whole entry): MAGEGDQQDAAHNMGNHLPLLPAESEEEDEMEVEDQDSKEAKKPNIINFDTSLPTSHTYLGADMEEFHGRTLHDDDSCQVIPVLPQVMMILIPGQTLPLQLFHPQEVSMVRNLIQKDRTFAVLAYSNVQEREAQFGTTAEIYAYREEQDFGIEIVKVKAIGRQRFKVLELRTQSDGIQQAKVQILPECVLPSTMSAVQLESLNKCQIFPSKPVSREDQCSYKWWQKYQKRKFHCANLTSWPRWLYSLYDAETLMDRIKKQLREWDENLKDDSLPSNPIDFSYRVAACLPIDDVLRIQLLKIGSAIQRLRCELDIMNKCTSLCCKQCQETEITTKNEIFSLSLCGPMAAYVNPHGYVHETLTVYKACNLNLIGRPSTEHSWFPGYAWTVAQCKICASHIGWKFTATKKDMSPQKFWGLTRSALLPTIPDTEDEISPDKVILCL
T3 sequence (Q16531 whole entry partner): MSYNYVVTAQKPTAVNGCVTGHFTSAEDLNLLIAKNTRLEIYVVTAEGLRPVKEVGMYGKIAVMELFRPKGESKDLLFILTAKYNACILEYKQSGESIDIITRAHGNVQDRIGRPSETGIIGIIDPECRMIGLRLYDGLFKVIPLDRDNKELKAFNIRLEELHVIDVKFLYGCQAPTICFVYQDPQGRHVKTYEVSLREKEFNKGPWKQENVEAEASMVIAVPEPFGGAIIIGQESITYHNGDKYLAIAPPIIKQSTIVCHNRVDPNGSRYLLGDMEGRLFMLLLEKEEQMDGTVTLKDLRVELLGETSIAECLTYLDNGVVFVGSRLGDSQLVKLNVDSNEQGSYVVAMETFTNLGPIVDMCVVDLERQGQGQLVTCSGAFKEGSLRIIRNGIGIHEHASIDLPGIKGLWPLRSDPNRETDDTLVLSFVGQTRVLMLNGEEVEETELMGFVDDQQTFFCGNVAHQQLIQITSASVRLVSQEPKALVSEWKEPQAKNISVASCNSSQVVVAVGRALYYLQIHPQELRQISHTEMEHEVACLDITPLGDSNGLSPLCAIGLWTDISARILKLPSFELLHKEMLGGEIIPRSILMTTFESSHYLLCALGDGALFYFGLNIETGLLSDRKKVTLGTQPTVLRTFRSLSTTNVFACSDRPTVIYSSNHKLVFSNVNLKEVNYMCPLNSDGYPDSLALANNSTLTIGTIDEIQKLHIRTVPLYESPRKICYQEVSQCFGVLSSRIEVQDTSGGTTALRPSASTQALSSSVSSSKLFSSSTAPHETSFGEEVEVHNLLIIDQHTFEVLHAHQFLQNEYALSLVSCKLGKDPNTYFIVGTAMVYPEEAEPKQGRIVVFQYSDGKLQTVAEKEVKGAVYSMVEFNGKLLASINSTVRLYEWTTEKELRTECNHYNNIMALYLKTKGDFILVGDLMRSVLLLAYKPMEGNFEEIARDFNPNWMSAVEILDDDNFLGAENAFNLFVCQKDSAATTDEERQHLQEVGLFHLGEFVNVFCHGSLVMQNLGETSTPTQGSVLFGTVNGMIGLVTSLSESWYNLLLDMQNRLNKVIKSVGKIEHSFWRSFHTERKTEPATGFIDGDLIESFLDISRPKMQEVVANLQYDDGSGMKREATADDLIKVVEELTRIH
T2 sequence (P48729 whole entry): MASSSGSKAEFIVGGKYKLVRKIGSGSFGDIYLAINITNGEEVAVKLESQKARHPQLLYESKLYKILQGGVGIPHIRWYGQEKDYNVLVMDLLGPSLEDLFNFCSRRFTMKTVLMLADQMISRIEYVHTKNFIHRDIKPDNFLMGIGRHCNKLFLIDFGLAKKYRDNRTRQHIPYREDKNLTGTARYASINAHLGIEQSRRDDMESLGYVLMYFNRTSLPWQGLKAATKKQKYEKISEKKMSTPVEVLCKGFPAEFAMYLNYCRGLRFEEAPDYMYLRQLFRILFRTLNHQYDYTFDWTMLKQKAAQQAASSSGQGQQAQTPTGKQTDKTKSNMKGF
T2 sequence (Q96SW2 whole entry): as the sequence (Q96SW2 whole entry) above
T2 sequence (Q16531 whole entry partner): as the sequence (Q16531 whole entry partner) above
T4 sequence (Q13422 whole entry): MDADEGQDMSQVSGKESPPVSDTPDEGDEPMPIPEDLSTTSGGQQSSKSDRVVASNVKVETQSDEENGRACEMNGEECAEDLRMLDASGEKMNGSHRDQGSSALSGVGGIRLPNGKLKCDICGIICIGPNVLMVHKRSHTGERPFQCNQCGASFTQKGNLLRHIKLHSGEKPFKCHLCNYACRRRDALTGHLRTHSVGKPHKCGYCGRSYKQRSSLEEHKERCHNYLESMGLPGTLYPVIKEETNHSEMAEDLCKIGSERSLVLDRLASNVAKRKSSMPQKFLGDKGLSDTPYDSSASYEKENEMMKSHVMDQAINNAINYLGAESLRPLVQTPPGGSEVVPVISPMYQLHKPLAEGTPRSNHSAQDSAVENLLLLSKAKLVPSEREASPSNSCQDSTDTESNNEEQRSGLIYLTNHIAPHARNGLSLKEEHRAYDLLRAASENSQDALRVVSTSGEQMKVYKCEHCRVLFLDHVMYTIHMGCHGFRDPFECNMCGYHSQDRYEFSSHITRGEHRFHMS
T4 sequence (Q96SW2 whole entry): as the sequence (Q96SW2 whole entry) above
T4 sequence (Q16531 whole entry partner): as the sequence (Q16531 whole entry partner) above
T5 sequence (Q9UKT9 whole entry): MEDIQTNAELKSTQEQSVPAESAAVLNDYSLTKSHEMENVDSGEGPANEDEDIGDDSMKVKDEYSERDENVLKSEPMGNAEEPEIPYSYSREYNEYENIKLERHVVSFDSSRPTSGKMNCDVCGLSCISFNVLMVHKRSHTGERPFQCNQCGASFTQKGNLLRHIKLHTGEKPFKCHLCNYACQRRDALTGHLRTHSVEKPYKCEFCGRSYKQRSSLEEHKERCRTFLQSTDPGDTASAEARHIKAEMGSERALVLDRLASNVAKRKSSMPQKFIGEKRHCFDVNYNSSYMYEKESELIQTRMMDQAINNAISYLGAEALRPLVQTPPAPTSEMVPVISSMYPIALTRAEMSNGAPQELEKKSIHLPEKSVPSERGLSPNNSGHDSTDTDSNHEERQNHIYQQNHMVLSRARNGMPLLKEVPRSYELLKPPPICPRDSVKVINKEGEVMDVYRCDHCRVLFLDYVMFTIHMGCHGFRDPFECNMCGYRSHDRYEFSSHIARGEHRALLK
T5 sequence (Q96SW2 whole entry): as the sequence (Q96SW2 whole entry) above
T5 sequence (Q16531 whole entry partner): as the sequence (Q16531 whole entry partner) above
T1 sequence (P15170 whole entry): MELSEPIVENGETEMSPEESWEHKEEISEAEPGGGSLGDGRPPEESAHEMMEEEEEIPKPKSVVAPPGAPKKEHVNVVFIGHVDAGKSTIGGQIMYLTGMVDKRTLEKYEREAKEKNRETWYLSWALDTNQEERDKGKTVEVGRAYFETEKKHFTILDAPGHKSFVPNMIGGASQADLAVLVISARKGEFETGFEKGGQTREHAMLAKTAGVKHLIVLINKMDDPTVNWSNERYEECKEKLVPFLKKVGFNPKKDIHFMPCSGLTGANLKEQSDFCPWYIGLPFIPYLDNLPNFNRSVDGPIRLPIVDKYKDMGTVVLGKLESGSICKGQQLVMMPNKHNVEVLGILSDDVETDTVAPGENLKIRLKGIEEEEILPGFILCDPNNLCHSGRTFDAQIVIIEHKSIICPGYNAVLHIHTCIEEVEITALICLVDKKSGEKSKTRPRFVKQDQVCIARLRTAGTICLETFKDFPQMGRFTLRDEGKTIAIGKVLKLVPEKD
T1 sequence (Q96SW2 whole entry): as the sequence (Q96SW2 whole entry) above
T1 sequence (Q16531 whole entry partner): as the sequence (Q16531 whole entry partner) above

With `O=C1CCN(N2C(=O)c3ccc(CN4CCN(c5ccncc5Cl)CC4)cc3C2=O)C(=O)N1` [GT-07165, 5-((4-(3-chloropyridin-4-yl)piperazin-1-yl)methyl)-2-(2,4-dioxotetrahydropyrimidin-1(2H)-yl)isoindoline-1,3-dione], on GSPT1, the “GSPT1 substrate protein remaining %” value is given as “A ("A" is defined as 0% ≤ substrate protein remaining % ≤ 80%)”. For the same compound, at CK1α, the “CK1α substrate protein remaining %” value is “B ("B" is defined as 80%< substrate protein remaining %≤ 100%)”. The “IKZF2 substrate protein remaining %” value at IKZF2 is listed as “A ("A" is defined as 0% ≤ substrate protein remaining % ≤ 80%)”. Moreover, at IKZF1, the “IKZF1 substrate protein remaining %” value is listed as “B ("B" is defined as 80%< substrate protein remaining %≤ 100%)”. Besides, at IKZF3, the “IKZF3 substrate protein remaining %” value is given as “B ("B" is defined as 80%< substrate protein remaining %≤ 100%)”. The “WEE1 substrate protein remaining %” value on WEE1 was “B ("B" is defined as 80%< substrate protein remaining %≤ 100%)”.
Take `O=C1CCN(N2Cc3cc(CN4CC=C(c5ncccc5F)CC4)ccc3C2=O)C(=O)N1` [GT-06395, 1-(5-((3-fluoro-3',6'-dihydro-[2,4'-bipyridin]-1'(2'H)-yl)methyl)-1-oxoisoindolin-2-yl)dihydropyrimidine-2,4(1H,3H)-dione]: the “GSPT1 substrate protein remaining %” value at GSPT1 is recorded as “A ("A" is defined as 0% ≤ substrate protein remaining % ≤ 80%)”. For the same compound, at CK1α, the “CK1α substrate protein remaining %” value is “A ("A" is defined as 0% ≤ substrate protein remaining % ≤ 80%)”. The “IKZF2 substrate protein remaining %” value at IKZF2 is recorded as “B ("B" is defined as 80%< substrate protein remaining %≤ 100%)”. Besides, the “IKZF1 substrate protein remaining %” value on IKZF1 is on record as “B ("B" is defined as 80%< substrate protein remaining %≤ 100%)”. For the same compound, the “IKZF3 substrate protein remaining %” value on IKZF3 is “B ("B" is defined as 80%< substrate protein remaining %≤ 100%)”. The “WEE1 substrate protein remaining %” value on WEE1 is reported as “B ("B" is defined as 80%< substrate protein remaining %≤ 100%)”.
For the compound `NCc1ccc2c(c1)C(=O)N(N1CCC(=O)NC1=O)C2=O` [GT-07968, 5-(aminomethyl)-2-(2,4-dioxotetrahydropyrimidin-1(2H)-yl)isoindoline-1,3-dione], the “substrate protein remaining % GSPT1” value at GSPT1 is reported as “B (80%< substrate protein remaining %≤ 100%)”. In addition, at CK1α, the “substrate protein remaining % CK1α” value is given as “A (0% ≤ substrate protein remaining % ≤ 80%)”. Besides, on IKZF2, the “substrate protein remaining % IKZF2” value was “A (0% ≤ substrate protein remaining % ≤ 80%)”. Further, the “substrate protein remaining % IKZF1” value on IKZF1 was “A (0% ≤ substrate protein remaining % ≤ 80%)”. Also, the “substrate protein remaining % IKZF3” value at IKZF3 is recorded as “A (0% ≤ substrate protein remaining % ≤ 80%)”. In addition, the “substrate protein remaining % WEE1” value at WEE1 is “A (0% ≤ substrate protein remaining % ≤ 80%)”.
On to `O=C1CCN(N2C(=O)c3ccc(CN4CCN(c5c[nH]c6ncccc56)CC4)cc3C2=O)C(=O)N1` [GT-07528, 5-((4-(1H-pyrrolo[2,3-b]pyridin-3-yl)piperazin-1-yl)methyl)-2-(2,4-dioxotetrahydropyrimidin-1(2H)-yl)isoindoline-1,3-dione], for which the “substrate protein remaining % GSPT1” value at GSPT1 is given as “A (0% ≤ substrate protein remaining % ≤ 80%)”. Also, the “substrate protein remaining % CK1α” value on CK1α was “A (0% ≤ substrate protein remaining % ≤ 80%)”. The “substrate protein remaining % IKZF2” value at IKZF2 was “B (80%< substrate protein remaining %≤ 100%)”. Further, the “substrate protein remaining % IKZF1” value on IKZF1 is “B (80%< substrate protein remaining %≤ 100%)”. Also, the “substrate protein remaining % IKZF3” value at IKZF3 was “B (80%< substrate protein remaining %≤ 100%)”. Besides, on WEE1, the “substrate protein remaining % WEE1” value is on record as “B (80%< substrate protein remaining %≤ 100%)”.
Regarding `O=C1CCN(N2C(=O)c3ccc(CN4CCN(c5ccnc(Br)c5F)CC4)cc3C2=O)C(=O)N1` [GT-07167, 5-((4-(2-bromo-3-fluoropyridin-4-yl)piperazin-1-yl)methyl)-2-(2,4-dioxotetrahydropyrimidin-1(2H)-yl)isoindoline-1,3-dione], at GSPT1, the “GSPT1 substrate protein remaining %” value is given as “A ("A" is defined as 0% ≤ substrate protein remaining % ≤ 80%)”. In addition, the “CK1α substrate protein remaining %” value at CK1α was “B ("B" is defined as 80%< substrate protein remaining %≤ 100%)”. Besides, the “IKZF2 substrate protein remaining %” value at IKZF2 is listed as “A ("A" is defined as 0% ≤ substrate protein remaining % ≤ 80%)”. For the same compound, the “IKZF1 substrate protein remaining %” value at IKZF1 is “B ("B" is defined as 80%< substrate protein remaining %≤ 100%)”. For the same compound, at IKZF3, the “IKZF3 substrate protein remaining %” value is reported as “B ("B" is defined as 80%< substrate protein remaining %≤ 100%)”. Besides, at WEE1, the “WEE1 substrate protein remaining %” value is listed as “B ("B" is defined as 80%< substrate protein remaining %≤ 100%)”.
With `COc1ccc(N2CCN(Cc3ccc4c(c3)CN(N3CCC(=O)NC3=O)C4=O)CC2)cc1` [GT-06767, 1-(5-((4-(4-methoxyphenyl)piperazin-1-yl)methyl)-1-oxoisoindolin-2-yl)dihydropyrimidine-2,4(1H,3H)-dione], on GSPT1, the “GSPT1 substrate protein remaining %” value is recorded as “A ("A" is defined as 0% ≤ substrate protein remaining % ≤ 80%)”. In addition, the “CK1α substrate protein remaining %” value on CK1α was “A ("A" is defined as 0% ≤ substrate protein remaining % ≤ 80%)”. Besides, the “IKZF2 substrate protein remaining %” value at IKZF2 is listed as “A ("A" is defined as 0% ≤ substrate protein remaining % ≤ 80%)”. Moreover, the “IKZF1 substrate protein remaining %” value at IKZF1 is recorded as “A ("A" is defined as 0% ≤ substrate protein remaining % ≤ 80%)”. Moreover, the “IKZF3 substrate protein remaining %” value at IKZF3 is given as “A ("A" is defined as 0% ≤ substrate protein remaining % ≤ 80%)”. Besides, the “WEE1 substrate protein remaining %” value on WEE1 is “A ("A" is defined as 0% ≤ substrate protein remaining % ≤ 80%)”.
With `Cn1cc(C2CCN(Cc3ccc4c(c3)C(=O)N(N3CCC(=O)NC3=O)C4=O)CC2)c2ccc(F)cc21` [GT-07581, 2-(2,4-dioxotetrahydropyrimidin-1(2H)-yl)-5-((4-(6-fluoro-1-methyl-1H-indol-3-yl)piperidin-1-yl)methyl)isoindoline-1,3-dione], the “substrate protein remaining % GSPT1” value at GSPT1 is “A (0% ≤ substrate protein remaining % ≤ 80%)”. Moreover, on CK1α, the “substrate protein remaining % CK1α” value is “B (80%< substrate protein remaining %≤ 100%)”. Besides, the “substrate protein remaining % IKZF2” value on IKZF2 was “A (0% ≤ substrate protein remaining % ≤ 80%)”. Also, the “substrate protein remaining % IKZF1” value at IKZF1 is given as “A (0% ≤ substrate protein remaining % ≤ 80%)”. The “substrate protein remaining % IKZF3” value at IKZF3 is given as “B (80%< substrate protein remaining %≤ 100%)”. For the same compound, the “substrate protein remaining % WEE1” value on WEE1 is given as “A (0% ≤ substrate protein remaining % ≤ 80%)”.
For `O=C1CCN(N2C(=O)c3ccc(CN4CCN(c5cc(Cl)nnc5Cl)CC4)cc3C2=O)C(=O)N1` [GT-07036, 5-((4-(3,6-dichloropyridazin-4-yl)piperazin-1-yl)methyl)-2-(2,4-dioxotetrahydropyrimidin-1(2H)-yl)isoindoline-1,3-dione], the “GSPT1 substrate protein remaining %” value at GSPT1 is given as “A ("A" is defined as 0% ≤ substrate protein remaining % ≤ 80%)”. The “CK1α substrate protein remaining %” value on CK1α is given as “B ("B" is defined as 80%< substrate protein remaining %≤ 100%)”. Besides, the “IKZF2 substrate protein remaining %” value on IKZF2 is “B ("B" is defined as 80%< substrate protein remaining %≤ 100%)”. On IKZF1, the “IKZF1 substrate protein remaining %” value is “B ("B" is defined as 80%< substrate protein remaining %≤ 100%)”. In addition, the “IKZF3 substrate protein remaining %” value at IKZF3 is “B ("B" is defined as 80%< substrate protein remaining %≤ 100%)”. At WEE1, the “WEE1 substrate protein remaining %” value is recorded as “B ("B" is defined as 80%< substrate protein remaining %≤ 100%)”.
